# According to PubChem BioAssay (NCI):
#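 1) Cells in 96-well plates. 2) Compound, 48 h, 5 concentrations. 3) Linear interpolation between surrounding doses. 4) Unreached endpoint = highest concentration. Here, GI50 denotes the concentration required for 50% inhibition of growth. The concentration for full growth arrest is given as TGI.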
# System: KM12 colon
# Assay: NCI-60 cell line screen, 48 h
Compound,GI50 [µM],TGI [µM]
CCCCCc1c(C)[nH]c(/C=C2\N=C(c3ccc[nH]3)C=C2CC)c1C,< 0.01,0.191
CC(=O)Oc1ccccc1C(=O)N=C1[Se]CCN1C(=O)c1ccccc1OC(C)=O,1.1,> 100
CC(C)(C)C(=O)/C=C/c1ccc(Oc2ccccc2)cc1,–,33.9
CC1=C(C(=O)Nc2c(C)cccc2C)C(c2ccccc2Cl)C(C(=O)Nc2c(C)cccc2C)=C(C)N1,–,> 100
Cc1cn2c(/C=C3/C(=O)Nc4ccccc43)c(-c3ccc(Cl)cc3)nc2s1,10.5,23.2
O=C1CSC(Cc2nc3ccccc3[nH]2)=N1,–,> 64.1
COc1ccccc1NC(=O)C1=C(C)NC(C)=C(C(=O)Nc2ccccc2OC)C1c1ccc([N+](=O)[O-])cc1,–,> 100
CCOC(=O)[C@H](CCCNC(=O)OC(C)(C)C)NCc1ccc(OC)c(OC)c1,–,> 100
O=C(/C=C/c1c(O)ccc2ccccc12)c1ccc2ccccc2c1,–,> 100
O=[N+]([O-])c1ccc(-n2nnc(C3=NCCCN3)c2-c2ccc(Cl)cc2)cc1,–,> 100
COC(=O)C12C3C4C5(C(=O)OC)C(C1C35C(=O)N(C(C)C)C(C)C)C42C(=O)N(C(C)C)C(C)C (stereo not given),–,> 50
N#CC(C#N)=c1[nH]c2cccc3c2-c2c(cccc2c3=C(C#N)C#N)[nH]1,–,> 100
C#C[C@]1(O)CC[C@H]2[C@@H]3CC=C4c5sc(Nc6ccccc6)nc5CC[C@]4(C)[C@H]3CC[C@@]21C,2.66,12.7
COC(=O)/C=C/C1C(C(=O)OC)C2(C(=O)OC)CCC1(C(=O)OC)N2 (stereo not given),–,> 100
CSC1(CC(=O)N(C)C)C(=O)Nc2ccccc21 (stereo not given),–,> 100
N#CC(/C(=N/NC(=O)C(=O)NN)C(=O)NC12CC3CC(CC(C3)C1)C2)c1ccccc1 (stereo not given),–,> 100
CC(=O)OCC1OC([S-])C(OC(C)=O)C(OC(C)=O)C1OC(C)=O.CC[PH+](CC)CC.CC[PH+](CC)CC.[Au].[Au] (stereo not given),1.04,2.66
Cc1cc(C)n(CCNCCn2nc(C)cc2C)n1,–,> 100
COc1cc2c(cc1OCc1ccccc1)CNCC2,–,> 100
O=C(CN1CCCCC1)N1CCc2c([nH]c3ccccc23)C1c1cccnc1 (stereo not given),–,> 100

Compound,GI50 [µM],TGI [µM]
O/N=C\c1c(O)ccc2ccccc12,–,> 100
CCCCCCCCCc1cc(=O)c2c(O)cccc2o1,–,> 100
COc1cc2cn3c4ccc(O)cc4[nH]c(=O)c3c2cc1OC,0.0451,1.48
O=C(C[n+]1ccccc1)NNC(=O)/C(=C/c1ccc2c(c1)OCO2)NC(=O)c1ccccc1,–,> 100
COc1ccc(/C=c2/sc3n(c2=O)C(c2ccc(OC)c(OC)c2)C2=C(N=3)c3cc(F)ccc3OC2)cc1 (stereo not given),18.1,> 79.2
O=S(O)CCCCSSCc1ccccc1CSSCCCCS(=O)O,–,59.6
Clc1ccc(-c2c(C3=NCCN3)nnn2-c2ccc(Cl)cc2)cc1,–,56.3
CC(C)(C)N1CC2(CCCCC2)C1=O,–,> 100
O=C(CCC(=O)Nc1cccc(Cl)c1)CC(=O)c1ccc(Cl)cc1,–,> 100
COc1ccc(C2C(C#N)=C(N)OC3=C2COc2ccc(F)cc23)cc1OC (stereo not given),23.5,69.2
NC1CCCC[C@H]1N.N[C@@H]1CCCC[C@@H]1N.O=C(P(=O)([O-])[O-])P(=O)([O-])[O-].[Pt+4].[Pt+4],> 100,> 100
NC(N)=N/N=C/c1cc(Cl)cc(Cl)c1O,–,> 100
O=C(CSc1nnc(-c2ccccc2NC(=O)C(F)(F)F)c(=O)[nH]1)NC(=O)Nc1ccccc1,–,> 100
N#CC1Nc2ccccc2[C@@H](O)C1O (stereo not given in full),–,> 100
O=C1c2ccn(CCCCNC(CO)(CO)CO)c2C(=O)c2c1c(O)c1ccccc1c2O,0.592,1.76
c1ccc2c3ccn4cc5c(cc4c-3nc2c1)CCCC5,–,8.59
CCOC(=O)c1[nH]c(COC(C)=O)c(CCCOC(C)=O)c1CCCOC(C)=O,–,> 100
CCN1C(=O)N(CC)C2C1NC(=S)N2/N=C/C=C/c1cccs1 (stereo not given),0.312,> 100
COc1ccc(C(=O)C(CO)Oc2ccccc2OC)cc1OC (stereo not given),–,> 100

# System: BT-549 breast
# Assay: NCI-60 cell line screen, 48 h
Compound,GI50 [µM],TGI [µM]
Nc1nc(Nc2ccccc2)c2ncn(Cc3cc4c(cc3Br)OCO4)c2n1,0.0511,2.33
CCCCCc1c(C)[nH]c(/C=C2\N=C(c3ccc[nH]3)C=C2CC)c1C,0.0145,0.17
Cc1cn2c(/C=C3/C(=O)Nc4ccccc43)c(-c3ccc(Cl)cc3)nc2s1,9.32,19.3
CSC1(CC(=O)N(C)C)C(=O)Nc2ccccc21 (stereo not given),–,> 100
COc1cc2cn3c4ccc(O)cc4[nH]c(=O)c3c2cc1OC,0.435,2.26
COc1ccc(/C=c2/sc3n(c2=O)C(c2ccc(OC)c(OC)c2)C2=C(N=3)c3cc(F)ccc3OC2)cc1 (stereo not given),46.2,> 100
COc1ccc(C2C(C#N)=C(N)OC3=C2COc2ccc(F)cc23)cc1OC (stereo not given),28.9,> 100
O=C1c2ccn(CCCCNC(CO)(CO)CO)c2C(=O)c2c1c(O)c1ccccc1c2O,22.7,69.9
c1ccc2c3ccn4cc5c(cc4c-3nc2c1)CCCC5,11.3,59.6
CCN1C(=O)N(CC)C2C1NC(=S)N2/N=C/C=C/c1cccs1 (stereo not given),1.2,9.09

# System: IGROV1 ovarian
# Assay: NCI-60 cell line screen, 48 h
Compound,GI50 [µM],TGI [µM]
Nc1nc(Nc2ccccc2)c2ncn(Cc3cc4c(cc3Br)OCO4)c2n1,0.105,60.4
Nc1c(C(=O)N/N=C/c2ccc(-c3ccc(Cl)cc3)o2)cnn1-c1ccnc2c(C(F)(F)F)cccc12,> 100,> 100
CCCCCc1c(C)[nH]c(/C=C2\N=C(c3ccc[nH]3)C=C2CC)c1C,0.0268,0.163
CC(C)(C)C(=O)/C=C/c1ccc(Oc2ccccc2)cc1,–,> 100
CC1=C(C(=O)Nc2c(C)cccc2C)C(c2ccccc2Cl)C(C(=O)Nc2c(C)cccc2C)=C(C)N1,–,> 100
Cc1cn2c(/C=C3/C(=O)Nc4ccccc43)c(-c3ccc(Cl)cc3)nc2s1,10.2,19.9
O=C1CSC(Cc2nc3ccccc3[nH]2)=N1,–,> 58.7
COc1ccccc1NC(=O)C1=C(C)NC(C)=C(C(=O)Nc2ccccc2OC)C1c1ccc([N+](=O)[O-])cc1,–,> 100
CCOC(=O)[C@H](CCCNC(=O)OC(C)(C)C)NCc1ccc(OC)c(OC)c1,–,> 100
O=C(/C=C/c1c(O)ccc2ccccc12)c1ccc2ccccc2c1,–,> 100
O=[N+]([O-])c1ccc(-n2nnc(C3=NCCCN3)c2-c2ccc(Cl)cc2)cc1,–,> 100
COC(=O)C12C3C4C5(C(=O)OC)C(C1C35C(=O)N(C(C)C)C(C)C)C42C(=O)N(C(C)C)C(C)C (stereo not given),–,> 50
N#CC(C#N)=c1[nH]c2cccc3c2-c2c(cccc2c3=C(C#N)C#N)[nH]1,–,> 100
C#C[C@]1(O)CC[C@H]2[C@@H]3CC=C4c5sc(Nc6ccccc6)nc5CC[C@]4(C)[C@H]3CC[C@@]21C,2.06,5.5
COC(=O)/C=C/C1C(C(=O)OC)C2(C(=O)OC)CCC1(C(=O)OC)N2 (stereo not given),–,> 100
CSC1(CC(=O)N(C)C)C(=O)Nc2ccccc21 (stereo not given),–,> 100
N#CC(/C(=N/NC(=O)C(=O)NN)C(=O)NC12CC3CC(CC(C3)C1)C2)c1ccccc1 (stereo not given),–,> 100
CC(=O)OCC1OC([S-])C(OC(C)=O)C(OC(C)=O)C1OC(C)=O.CC[PH+](CC)CC.CC[PH+](CC)CC.[Au].[Au] (stereo not given),0.306,1.09
COc1cc2c(cc1OCc1ccccc1)CNCC2,–,> 100
O=C(CN1CCCCC1)N1CCc2c([nH]c3ccccc23)C1c1cccnc1 (stereo not given),–,> 100
CCCCCCCCCc1cc(=O)c2c(O)cccc2o1,–,> 100
O=C(C[n+]1ccccc1)NNC(=O)/C(=C/c1ccc2c(c1)OCO2)NC(=O)c1ccccc1,–,> 100
COc1ccc(/C=c2/sc3n(c2=O)C(c2ccc(OC)c(OC)c2)C2=C(N=3)c3cc(F)ccc3OC2)cc1 (stereo not given),9.71,> 26.5
O=S(O)CCCCSSCc1ccccc1CSSCCCCS(=O)O,–,> 100
Clc1ccc(-c2c(C3=NCCN3)nnn2-c2ccc(Cl)cc2)cc1,–,> 100
CC(C)(C)N1CC2(CCCCC2)C1=O,–,> 100
O=C(CCC(=O)Nc1cccc(Cl)c1)CC(=O)c1ccc(Cl)cc1,–,> 100
COc1ccc(C2C(C#N)=C(N)OC3=C2COc2ccc(F)cc23)cc1OC (stereo not given),28.7,> 100
